Laboratory results as given in publication PMC7852560 (Neuropsychopharmacology, 2020).

Tests used:
CB1R [1] = target: T1, CB1R (Homo sapiens, UniProt P21554); set-up: beta-galactosidase enzyme fragment (EFC; ProLink by own knowledge); method as in PMID 16113085, PMID 18029031; conditions: cited from earlier work
CB1R [2] = target: T1, CB1R; set-up: beta-galactosidase enzyme fragment (EFC; ProLink by own knowledge); method as in PMID 16113085, PMID 18029031; conditions: cited from earlier work; remark: listed apart in the source
C57Bl/6J mice = type: in vivo; conditions: 10 mg/kg i.p., 30 min before test, compared to vehicle
From the text: (i.p.) before testing. The EPM was composed of 4 opaque-white arms (2 opposite arms closed, 2 opposite arms open), arranged in a plus shape, with an open center. The dimensions were as follows; maze elevation (38.7cm), open arm (L:30.5 cm, W:5 cm, H:0 cm), closed arm (L:30.5 cm, W:5 cm, H:15.2 cm) and center (5 cm x 5 cm). The experiment mouse was placed in the center of the maze and allowed to freely explore the maze for 8-min (50lux), while being tracked with an overhead camera. Open and closed arm times were recorded and collected by Biobserve Viewer3 software. The percentage of time spent in the open arms as compared to closed arms and center time was calculated and expressed as a percent of time spent in the open or closed arms of the maze.

Male C57Bl/6J mice = assay: Cannabinoid-induced tetrad; type: in vivo; conditions: 10 mg/kg i.p., 30 min prior
Procedure: Male C57Bl/6J mice (PD > 70) were tested on the cannabinoid-induced tetrad, as previously described.
(i.p.) before testing. The tetrad was performed (1) catalepsy, (2) locomotion, (3) temperature, and (4) analgesia. Catalepsy: time (s) spent immobile with front paws on a plastic rod (1.5cm diameter), at a height of 4.5-cm from the table, before adjusting abnormal posture (either front paws being removed from the bar, or back paws climbing onto bar). Locomotion: horizontal activity (cm) was immediately measured in an open field test, following catalepsy, for 15-min. in 1-min bins. Temperature: rectal temperature (°C) was measured immediately following open-field testing, using a thermometer with rectal probe (Labcorp, Fisher, Waltham, MA). Analgesia: latency (s) to withdraw tail from hot water bath (52 °C), to assess tail-flick antinociception, was completed immediately following temperature readings.

CB1R [3] = target: T1, CB1R; assay: cell-based; type: cell-based; conditions: hCB1R CHO cells, data not shown
Procedure: The cAMP BRET experiments were performed as previously described. Briefly, hCB1R HEK293 cells were transfected with 5 µg/10 cm dish of the CAMYEL biosensor using polyethylenimine. After 24 h, the cells were plated into white 96-well plates (PerkinElmer) at a density of 60,000 cells/well.
Cyclic AMP accumulation was measured using a DiscoverX HitHunter® cAMP Assay for Small Molecules (DiscoverX, Fremont, CA). hCB1R CHO cells were seeded at a density of 40,000 cells/well in 96-well white plates and grown overnight at 37 °C, 5% CO2 in a humidified incubator. […] Vehicle concentration was 1% DMSO, 0.1% BSA. Following agonist incubation, 15 µl of cAMP antibody reagent and 60 µl of working cAMP detection solution (containing 19 parts cAMP lysis buffer, 5 parts Substrate Reagent 1, 1 part Substrate Reagent 2 and 25 parts of cAMP Solution D) were added to all wells. Assay plates were incubated in the dark for 1 hr at room temperature, followed by addition of 60 µl cAMP solution A to all wells and incubation for 3 hr at room temperature in the dark. Plates were read using a GloMax Discover plate-reader (Promega, Madison, WI).

GluN1KD mice [4] = assay: Pre-pulse inhibition in GluN1KD mice; type: in vivo; conditions: ABM300 10 mg/kg, OLA 1 mg/kg i.p.
Procedure: Pre-Pulse Inhibition (PPI): PPI of the acoustic startle response was measured on day 3, via SR-LAB equipment and software from San Diego Instruments. Accelerometers were calibrated to 700±5 mV and output voltages were amplified and analyzed for voltage changes using SR Analysis (San Diego Instruments, San Diego, CA, USA), and exported as an excel file. Background white noise was maintained at 65dB. PPI was measured in a 30-min test with 80 randomized trials of: (1) 10 trials pulse alone (2) 10 trials pre-pulse alone (for each pre-pulse), (3) 10 trials pre-pulse plus pulse (for each pre-pulse), and (4) 10 trials no pulse. 5 pulse alone trials were performed before and after the 80 trials, totaling 90 trials per run. The pre-pulse (4dB, 8dB, or 16dB) was presented 100ms prior to the startle pulse […]. The inter-stimulus interval (ISI) was randomized between 5 and 20s. Experimental mice were placed in a cylindrical tube on a platform in a soundproof chamber. Mice were allowed to acclimatize in the chamber and to the background noise for 300s, followed by 5 consecutive pulse alone trials, then by 80 randomized trials (as described above) and then 5 consecutive pulse alone trials. Pre-pulse inhibition was measured as a decrease in the amplitude of startle response to a 100dB acoustic startle pulse, following each pre-pulse (4dB, 8dB and 16dB).

Male Sprague Dawley rats = assay: Conditioned avoidance response (CAR); type: in vivo; conditions: rats, ABM300 10 mg/kg, olanzapine 1 mg/kg i.p. daily
Procedure: Male Sprague Dawley rats (PD>63) were trained on a CAR protocol and responding following drug exposure was determined. […] Animals were trained to learn a house light (CS) as predictive of an avoidable 0.6mA scrambled foot shock (US). Each session consisted of 50 trials and animals avoided >70% of trials on the final acquisition session were tested for CAR during vehicle baseline, drug exposure, and re-emergence. In addition to CAR testing, both temperature and catalepsy were recorded in these animals (measure of potential CB1R agonism). Temperature: recorded on first day of drug exposure, prior to injection and 60-90-min. following drug exposure.

GluN1KD mice [5] = assay: Open-field test in GluN1KD mice; conditions: ABM300 10 mg/kg, OLA 1 mg/kg i.p., 30 min before test

T1 sequence (P21554 whole entry, the tested form may be a part): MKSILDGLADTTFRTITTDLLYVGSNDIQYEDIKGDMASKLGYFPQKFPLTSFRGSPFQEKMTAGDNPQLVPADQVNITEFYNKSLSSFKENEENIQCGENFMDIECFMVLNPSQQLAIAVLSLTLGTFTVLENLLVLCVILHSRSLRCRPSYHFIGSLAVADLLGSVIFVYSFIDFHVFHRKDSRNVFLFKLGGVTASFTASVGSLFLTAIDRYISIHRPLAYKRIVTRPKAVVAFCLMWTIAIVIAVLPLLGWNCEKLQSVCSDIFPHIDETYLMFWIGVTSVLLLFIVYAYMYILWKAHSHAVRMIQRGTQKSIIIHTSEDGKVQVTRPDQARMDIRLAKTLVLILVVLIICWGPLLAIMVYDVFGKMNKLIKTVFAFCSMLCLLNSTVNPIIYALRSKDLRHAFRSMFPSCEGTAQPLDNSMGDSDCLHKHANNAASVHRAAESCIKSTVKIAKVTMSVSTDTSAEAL

CCc1c(C(=O)NCCc2ccc(N3CCCCC3)cc2)[nH]c2ccc(Cl)cc12 [Org275]
Bmax of [3H] CB1R agonist binding (CB1R [1]): increases the Bmax | CB1R agonist-mediated signaling (CB1R [2]): acts as an inhibitor

Cc1c(C(=O)NN2CCCCC2)nn(-c2ccc(Cl)cc2Cl)c1-c1ccc(Cl)cc1 [rimonabant, reference compound]
time spent in the open arms (EPM) (C57Bl/6J mice): significantly reduced

CCCCCc1cc(O)c2c(c1)OC(C)(C)[C@@H]1CCC(C)=C[C@@H]21 [THC, Δ^9-tetrahydrocannabinol, reference compound]
tetrad: catalepsy-induced immobility time (Male C57Bl/6J mice): produced effects | tetrad: percent inhibition of locomotor activity (15 min) (Male C57Bl/6J mice): produced effects | tetrad: rectal temperature (Male C57Bl/6J mice): produced effects | tetrad: tail withdrawal (% MPE) (Male C57Bl/6J mice): produced effects

CCCCCCC(C)(C)c1ccc([C@@H]2C[C@H](O)CC[C@H]2CCCO)c(O)c1 [CP55,940, reference compound]
effect on forskolin-stimulated cAMP accumulation (CB1R [3]): inhibited

Cc1cc2c(s1)Nc1ccccc1N=C2N1CCN(C)CC1 [olanzapine, reference compound]
acoustic startle response (GluN1KD mice [4]): did not respond | sensorimotor gating deficits (PPI; 4, 8, 16 dB) (GluN1KD mice [4]): did not respond | escape failures in CAR (Male Sprague Dawley rats): neither ABM300 nor olanzapine affected escape failures | escape responding during CAR (Male Sprague Dawley rats): enhanced escape responding | avoidance behavior in CAR (Male Sprague Dawley rats; 30 min prior): attenuated avoidance behavior | exaggerated stereotypic activity (GluN1KD mice [5]): Effects of ABM300 are similar to those seen with olanzapine | novelty-induced hyperactivity (distance traveled) (GluN1KD mice [5]): Effects of ABM300 are similar to those seen with olanzapine | rearing behavior (vertical exploration) (GluN1KD mice [5]): Effects of ABM300 are similar to those seen with olanzapine
